In patent US20250129074A1, “CHIMERIC COMPOUND FOR TARGETED DEGRADATION OF ANDROGEN RECEPTOR PROTEIN, PREPARATION METHOD THEREFOR, AND MEDICAL USE THEREOF” (Jiangsu Hengrui Pharmaceuticals Co., Ltd., priority 2021, published 2025):
Like-named read-outs stand apart in the source and are kept apart here.

Assays:
[1] = test system: LNCaP cells; assay: Inhibition of LNCaP proliferation (CellTiter-Glo); type: cell-based; conditions: Homo sapiens, 144 h, 0.1 nM R1881, six days; for Emax: read-out: Max (maximum proliferation inhibition rate)
Method: The plate was incubated in a 37° C., 5% CO2 cell incubator for three days. […] A blank control cell well containing 0.5% DMSO and a cell-free vehicle control well were set up. The plate was incubated in a 37° C., 5% CO2 cell incubator for six days.

[2] = biological target: T1, androgen receptor (AR) (Homo sapiens, UniProt P10275, T878A); assay: Degradation activity on androgen receptor in LNCaP cells (AR ELISA); type: cell-based; conditions: for Dmax: read-out: Max (maximum AR degradation rate)
T1 construct: host or cells: LNCaP human prostate cancer cells
T1 sequence (P10275 1-920 T878A): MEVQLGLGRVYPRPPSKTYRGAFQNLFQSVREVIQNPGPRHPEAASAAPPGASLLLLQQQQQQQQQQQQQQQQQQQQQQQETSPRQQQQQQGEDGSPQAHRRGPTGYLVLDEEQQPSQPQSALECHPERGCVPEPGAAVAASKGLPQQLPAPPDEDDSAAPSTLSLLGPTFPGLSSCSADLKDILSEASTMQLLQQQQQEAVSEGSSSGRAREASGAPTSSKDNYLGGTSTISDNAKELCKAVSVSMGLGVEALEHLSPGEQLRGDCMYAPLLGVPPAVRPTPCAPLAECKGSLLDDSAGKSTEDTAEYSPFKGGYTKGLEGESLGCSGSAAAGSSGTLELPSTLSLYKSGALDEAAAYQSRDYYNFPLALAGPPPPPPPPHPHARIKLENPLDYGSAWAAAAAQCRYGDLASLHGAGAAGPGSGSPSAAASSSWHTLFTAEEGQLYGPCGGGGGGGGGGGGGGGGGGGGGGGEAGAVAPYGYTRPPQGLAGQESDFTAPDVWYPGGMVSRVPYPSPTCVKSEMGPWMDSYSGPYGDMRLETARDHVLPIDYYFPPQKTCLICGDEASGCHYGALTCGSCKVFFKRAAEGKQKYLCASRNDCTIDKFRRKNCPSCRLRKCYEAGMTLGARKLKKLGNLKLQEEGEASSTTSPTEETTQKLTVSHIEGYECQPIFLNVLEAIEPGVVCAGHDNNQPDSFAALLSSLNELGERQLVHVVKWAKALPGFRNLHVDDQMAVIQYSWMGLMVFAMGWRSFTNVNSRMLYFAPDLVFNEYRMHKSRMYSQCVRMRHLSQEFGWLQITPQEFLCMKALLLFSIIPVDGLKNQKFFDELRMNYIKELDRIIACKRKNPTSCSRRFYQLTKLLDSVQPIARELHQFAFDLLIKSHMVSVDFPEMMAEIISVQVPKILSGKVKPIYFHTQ
Method: The plate was incubated in a 37° C., 5% CO2 cell incubator for three days. […] A blank control cell well containing 0.5% DMSO was set up. The plate was incubated in a 37° C., 5% CO2 cell incubator for 24 hours. […] The lysate was well mixed by pipetting up and down and then centrifuged at 4000 rpm at 4° C. for 10 minutes. […] The plate was sealed and incubated in a 37° C. incubator for 1 hour. […] The plate was sealed and then incubated in a 37° C. incubator for 30 minutes.

[3] = read-out: LNCaP DC50, 0.1 nM R1881, 24 hours
[4] = 0.1 nM R1881, 24 hours, read-out: LNCaP DC50

| Structure (SMILES) | IC50 [1] | Emax [1] | Dmax ([2]; 0.1 nM R1881, 24 hours) | DC50 [2, 3] | DC50 [2, 4] |
| --- | --- | --- | --- | --- | --- |
| C[C@H]1CC2(CCN(C(=O)c3ccc(SC4CCN(C5CN(c6ccc(C(=O)NC7CCC(=O)NC7=O)c(F)c6)C5)CC4)nc3)CC2)CN1c1ccc(C#N)c(Cl)c1 (stereo partly drawn) [Example 5, 4-(3-(4-((5-((S)-2-(3-Chloro-4-cyanophenyl)-3-methyl-2,8-diazaspiro[4.5]decane-8-carbonyl)pyridin-2-yl)thio)piperidin-1-yl)azetidin-1-yl)-N-(2,6-dioxopiperidin-3-yl)-2-fluorobenzamide] | 0.189 µM | 72% | 86% | 0.0305 µM |  |
| C[C@H]1CC2(CCN(c3ccc(C(=O)N4CCC(N5CCC(N6CCN(c7ccc(N8CCC(=O)NC8=O)cc7)CC6)CC5)CC4)cc3)CC2)CN1c1ccc(C#N)c(Cl)c1 [Example 6, (S)-2-Chloro-4-(8-(4-(4-(4-(4-(2,4-dioxotetrahydropyrimidin-1(2H)-yl)phenyl)piperazin-1-yl)-[1,4′-bipiperidine]-1′-carbonyl)phenyl)-3-methyl-2,8-diazaspiro[4.5]decan-2-yl)benzonitrile] | 0.0246 µM | 50% | 86% |  | 0.0057 µM |
| C[C@H]1CC2(CCN(c3ccc(C(=O)N4CCC(N5CC(N6CCN(c7ccc(N8CCC(=O)NC8=O)cc7)CC6)C5)CC4)cc3)CC2)CN1c1ccc(C#N)c(Cl)c1 [Example 7, (S)-2-Chloro-4-(8-(4-(4-(3-(4-(4-(2,4-dioxotetrahydropyrimidin-1(2H)-yl)phenyl)piperazin-1-yl)azetidin-1-yl)piperidine-1-carbonyl)phenyl)-3-methyl-2,8-diazaspiro[4.5]decan-2-yl)benzonitrile] | 0.0046 µM | 53% | 93% |  | 0.001 µM |
| C[C@H]1CC2(CCN(c3ccc(C(=O)N4CCC(CN5CC(N6CCN(c7ccc(N8CCC(=O)NC8=O)cc7)CC6)C5)CC4)cc3)CC2)CN1c1ccc(C#N)c(Cl)c1 [Example 8, (S)-2-Chloro-4-(8-(4-(4-((3-(4-(4-(2,4-dioxotetrahydropyrimidin-1(2H)-yl)phenyl)piperazin-1-yl)azetidin-1-yl)methyl)piperidine-1-carbonyl)phenyl)-3-methyl-2,8-diazaspiro[4.5]decan-2-yl)benzonitrile] | 0.0098 µM | 31% | 85% |  | 0.0016 µM |
| C[C@H]1CC2(CCN(c3ccc(C(=O)N4CCC(CN5CCC(N6CCN(c7ccc(N8CCC(=O)NC8=O)cc7)CC6)CC5)CC4)cc3)CC2)CN1c1ccc(C#N)c(Cl)c1 [Example 9, (S)-2-Chloro-4-(8-(4-(4-((4-(4-(4-(2,4-dioxotetrahydropyrimidin-1(2H)-yl)phenyl)piperazin-1-yl)piperidin-1-yl)methyl)piperidine-1-carbonyl)phenyl)-3-methyl-2,8-diazaspiro[4.5]decan-2-yl)benzonitrile] | 0.069 µM | 59% | 92% |  | 0.0129 µM |
| C[C@H]1CC2(CCN(c3ccc(C(=O)N4CCC(N5CCN(c6cccc(NC7CCC(=O)NC7=O)c6)CC5)CC4)cc3)CC2)CN1c1ccc(C#N)c(Cl)c1 (stereo partly drawn) [Example 10, 2-Chloro-4-((3S)-8-(4-(4-(4-(3-((2,6-dioxopiperidin-3-yl)amino)phenyl)piperazin-1-yl)piperidine-1-carbonyl)phenyl)-3-methyl-2,8-diazaspiro[4.5]decan-2-yl)benzonitrile] | 0.093 µM | 70% | 97% |  | 0.0025 µM |
| C[C@H]1CC2(CCN(c3ccc(C(=O)N4CCC(CN5CCN(c6cccc(NC7CCC(=O)NC7=O)c6)CC5)CC4)nn3)CC2)CN1c1ccc(C#N)c(Cl)c1 (stereo partly drawn) [Example 13, 2-Chloro-4-((3S)-8-(6-(4-((4-(3-((2,6-dioxopiperidin-3-yl)amino)phenyl)piperazin-1-yl)methyl)piperidine-1-carbonyl)pyridazin-3-yl)-3-methyl-2,8-diazaspiro[4.5]decan-2-yl)benzonitrile] | 0.106 µM | 56% | 96% |  | 0.0005 µM |
| C[C@H]1CC2(CCN(c3ccc(C(=O)N4CC(CN5CCN(c6cccc(NC7CCC(=O)NC7=O)c6)CC5)C4)cc3)CC2)CN1c1ccc(C#N)c(Cl)c1 (stereo partly drawn) [Example 14, 2-Chloro-4-((3S)-8-(4-(3-((4-(3-((2,6-dioxopiperidin-3-yl)amino)phenyl)piperazin-1-yl)methyl)azetidine-1-carbonyl)phenyl)-3-methyl-2,8-diazaspiro[4.5]decan-2-yl)benzonitrile] | 0.057 µM | 69% | 96% |  | 0.0019 µM |
| C[C@H]1CC2(CCN(c3ccc(C(=O)N4CCC(CN5CCN(c6cccc(NC7CCC(=O)NC7=O)c6)CC5)CC4)c(F)c3)CC2)CN1c1ccc(C#N)c(Cl)c1 (stereo partly drawn) [Example 16, 2-Chloro-4-((3S)-8-(4-(4-((4-(3-((2,6-dioxopiperidin-3-yl)amino)phenyl)piperazin-1-yl)methyl)piperidine-1-carbonyl)-3-fluorophenyl)-3-methyl-2,8-diazaspiro[4.5]decan-2-yl)benzonitrile] | 0.084 µM | 70% | 97% | 0.0039 µM |  |
| C[C@H]1CC2(CCN(c3cnc(C(=O)N4CCC(CN5CCN(c6cccc(NC7CCC(=O)NC7=O)c6)CC5)CC4)cn3)CC2)CN1c1ccc(C#N)c(Cl)c1 (stereo partly drawn) [Example 17, 2-Chloro-4-((3S)-8-(5-(4-((4-(3-((2,6-dioxopiperidin-3-yl)amino)phenyl)piperazin-1-yl)methyl)piperidine-1-carbonyl)pyrazin-2-yl)-3-methyl-2,8-diazaspiro[4.5]decan-2-yl)benzonitrile] | 0.112 µM | 74% | 97% | 0.003 µM |  |
| C[C@H]1CC2(CCN(c3ccc(C(=O)N4CCC(CN5CCN(c6cccc(NC7CCC(=O)NC7=O)c6)CC5)CC4)cn3)CC2)CN1c1ccc(C#N)c(Cl)c1 (stereo partly drawn) [Example 18, 2-Chloro-4-((3S)-8-(5-(4-((4-(3-((2,6-dioxopiperidin-3-yl)amino)phenyl)piperazin-1-yl)methyl)piperidine-1-carbonyl)pyridin-2-yl)-3-methyl-2,8-diazaspiro[4.5]decan-2-yl)benzonitrile] | 0.123 µM | 72% | 96% |  | 0.0058 µM |
| C[C@H]1CC2(CCN(c3ccc(C(=O)N4CCC(CN5CCC(c6cccc(NC7CCC(=O)NC7=O)c6)CC5)CC4)cc3)CC2)CN1c1ccc(C#N)c(Cl)c1 (stereo partly drawn) [Example 19, 2-Chloro-4-((3S)-8-(4-(4-((4-(3-((2,6-dioxopiperidin-3-yl)amino)phenyl)piperidin-1-yl)methyl)piperidine-1-carbonyl)phenyl)-3-methyl-2,8-diazaspiro[4.5]decan-2-yl)benzonitrile] | 0.06 µM | 68% | 96% |  | 0.0018 µM |
| C[C@H]1CC2(CCN(c3ccc(C(=O)N4CCC(CN5CCC(c6cccc(NC7CCC(=O)NC7=O)c6)CC5)CC4)nn3)CC2)CN1c1ccc(C#N)c(Cl)c1 (stereo partly drawn) [Example 20, 2-Chloro-4-((3S)-8-(6-(4-((4-(3-((2,6-dioxopiperidin-3-yl)amino)phenyl)piperidin-1-yl)methyl)piperidine-1-carbonyl)pyridazin-3-yl)-3-methyl-2,8-diazaspiro[4.5]decan-2-yl)benzonitrile] | 0.015 µM | 59% | 92% |  | 0.0004 µM |
